Measured values as given in ChEMBL document CHEMBL4033762, “Development of Quinazoline/Pyrimidine-2,4(1H,3H)-diones as Agonists of Cannabinoid Receptor Type 2” (ACS Med Chem Lett, 2017).

Tests used:
Cannabinoid receptor 1 = Cannabinoid receptor 1 (Homo sapiens, UniProt P21554); experiment: Agonist activity at CB1 receptor (unknown origin) expressed in CHO cells co-expressing G-alpha16 incubated for 24 hrs by fluo-4 AM dye based whole-cell calcium mobilization assay
Cannabinoid receptor 2 [1] = molecular target: T1, Cannabinoid receptor 2 (Homo sapiens, UniProt P34972); experiment: Agonist activity at CB2 receptor (unknown origin) expressed in CHO cells co-expressing G-alpha16 incubated for 24 hrs by fluo-4 AM dye based whole-cell calcium mobilization assay; assay type: functional
[2] = Ratio of EC50 for agonist activity at CB1 receptor (unknown origin) expressed in CHO cells to EC50 for agonist activity at CB2 receptor (unknown origin) expressed in CHO cells; design: species or system Homo sapiens
Cannabinoid receptor 2 [3] = molecular target: T1, Cannabinoid receptor 2; experiment: Agonist activity at CB2 receptor (unknown origin) expressed in CHO cells co-expressing G-alpha16 incubated for 24 hrs by fluo-4 AM dye based whole-cell calcium mobilization assay relative to CP55940; assay type: functional
[4] = Lipophilicity, log P of the compound incubated at 37 degC for 20 hrs by HPLC based shake flask method; assay type: physicochemical

T1 sequence (P34972 whole entry): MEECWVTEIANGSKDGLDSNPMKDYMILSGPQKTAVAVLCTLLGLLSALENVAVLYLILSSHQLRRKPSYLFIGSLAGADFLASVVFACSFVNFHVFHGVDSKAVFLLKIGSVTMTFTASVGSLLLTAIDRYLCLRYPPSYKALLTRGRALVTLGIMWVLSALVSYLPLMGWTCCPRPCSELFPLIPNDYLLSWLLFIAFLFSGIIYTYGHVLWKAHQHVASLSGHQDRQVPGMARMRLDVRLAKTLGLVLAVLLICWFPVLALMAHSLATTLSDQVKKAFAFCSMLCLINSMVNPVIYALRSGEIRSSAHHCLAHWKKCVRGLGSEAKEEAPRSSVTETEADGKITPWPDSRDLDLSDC
Cannabinoid receptor 1, sequence (P21554 whole entry): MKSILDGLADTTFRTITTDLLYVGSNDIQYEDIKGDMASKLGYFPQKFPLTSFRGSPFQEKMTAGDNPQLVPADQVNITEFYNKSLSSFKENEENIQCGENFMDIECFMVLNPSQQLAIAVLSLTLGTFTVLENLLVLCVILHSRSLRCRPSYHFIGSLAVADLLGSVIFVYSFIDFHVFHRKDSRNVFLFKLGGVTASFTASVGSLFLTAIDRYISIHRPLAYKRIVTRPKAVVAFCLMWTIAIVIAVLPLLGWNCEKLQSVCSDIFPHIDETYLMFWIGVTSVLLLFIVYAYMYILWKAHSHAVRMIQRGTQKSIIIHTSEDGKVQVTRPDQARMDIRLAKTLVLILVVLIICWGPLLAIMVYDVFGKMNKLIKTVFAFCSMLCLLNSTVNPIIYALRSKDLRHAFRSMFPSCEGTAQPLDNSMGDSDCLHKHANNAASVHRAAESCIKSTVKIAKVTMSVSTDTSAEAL

Row | SMILES | EC50 (Cannabinoid receptor 1) | EC50 (Cannabinoid receptor 2 [1]) | Ratio EC50 [2] | Emax (Cannabinoid receptor 2 [3]) | logP at 20 h [4]
1 | CCCCCn1c(C)c(-c2cccc(C)c2)c(=O)n(CC(=O)NC(C)(C)C)c1=O | > 10000 nM | > 10000 nM |  |  | 
2 | CCCCCn1c(=O)n(CC(=O)NC(C)(C)C)c(=O)c2cccc(OC)c21 | > 10000 nM | > 10000 nM |  |  | 
3 | CCCCCn1c(C)cc(=O)n(CC(=O)NC2CCCCC2)c1=O | > 10000 nM | > 10000 nM |  |  | 
4 | CCCCCn1c(=O)n(CC(=O)NC(C)(C)C)c(=O)c2cccc(C)c21 | > 10000 nM | 27.7 nM | >361 | 99% | 
5 | CCCCCn1c(=O)n(CC(=O)NCCCC)c(=O)c2c(C)cccc21 | > 10000 nM | 468 nM | >21 | 83% | 
6 | Cc1cccc2c(=O)n(CC(=O)NC(C)(C)C)c(=O)n(CC3CC3)c12 | > 10000 nM | 309 nM | >32 | 110% | 
7 | CCCCCn1c(=O)n(CC(=O)NCCCC)c(=O)c2ccccc21 | > 10000 nM | 78.6 nM | >127 | 78% | 
8 | CCCCCn1c(=O)n(CC(=O)NC(C)C)c(=O)c2ccccc21 | > 10000 nM | 214 nM | >47 | 65% | 
9 | CCCCCn1c(=O)n(CC(=O)NCCCC)c(=O)c2c(OC)cccc21 | > 10000 nM | > 10000 nM |  |  | 
10 | CCCCCn1c(=O)n(CC(=O)NC2CCCCC2)c(=O)c2c(OC)cccc21 | > 10000 nM | > 10000 nM |  |  | 
11 | CCCCCn1c(=O)n(CC(=O)NC2CC2)c(=O)c2ccccc21 | > 10000 nM | 743 nM | >13 | 58% | 
12 | CCCCCn1c(C)c(I)c(=O)n(CC(=O)NC(C)(C)C)c1=O | > 10000 nM | 178 nM | >56 | 78% | 
13 | CCCCCn1c(=O)n(CC(=O)NC(C)(C)C)c(=O)c2ccccc21 | > 10000 nM | 86.5 nM | >116 | 80% | 
14 | CCCCCn1c(=O)n(CC(=O)NC2CCCCC2)c(=O)c2c(Cl)cccc21 | > 10000 nM | > 10000 nM |  |  | 
15 | CCCCCn1c(=O)n(CC(=O)NC2CCCCC2)c(=O)c2ccccc21 | > 10000 nM | > 10000 nM |  |  | 
16 | C=CCCn1c(=O)n(CC(=O)NC(C)(C)C)c(=O)c2cccc(C)c21 | > 10000 nM | 99.6 nM | >100 | 90% | 
17 | CCCCn1c(C)cc(=O)n(CC(=O)NC(C)(C)C)c1=O | > 10000 nM | > 10000 nM |  |  | 
18 | CCCCCn1c(=O)n(CC(=O)NC(C)(C)C)c(=O)c2cccc(Cl)c21 | > 10000 nM | 52.7 nM | >190 | 118% | 
19 | CCCCCCn1c(C)cc(=O)n(CC(=O)NC(C)(C)C)c1=O | > 10000 nM | 767 nM | >13 | 65% | 
20 | CCCCn1c(=O)n(CC(=O)NC(C)(C)C)c(=O)c2ccccc21 | > 10000 nM | 112 nM | >89 | 101% | 

Row | SMILES | EC50 (Cannabinoid receptor 1) | EC50 (Cannabinoid receptor 2 [1]) | Ratio EC50 [2] | Emax (Cannabinoid receptor 2 [3]) | logP at 20 h [4]
21 | CCCCCn1c(=O)n(CC(=O)NC2CCCCC2)c(=O)c2c(C)cccc21 | > 10000 nM | 395 nM | >25 | 56% | 
22 | CCCCCn1c(=O)n(CC(=O)NC(C)(C)C)c(=O)c2c(OC)cccc21 | > 10000 nM | 1250 nM | >8 | 88% | 
23 | CCCCN1C(=O)/C(=C/NC2CCCCC2)C(=O)c2cccc(C)c21 |  |  |  |  | 4.35
24 | O=C(NCC1CCOCC1)c1cnc(Nc2ccc(Cl)cc2Cl)nc1C(F)(F)F [GW842166X] | > 10000 nM | 343 nM | >29 | 97% | 4.27
25 | CCCCCn1c(C)c(-c2ccccc2)c(=O)n(CC(=O)NC(C)(C)C)c1=O | > 10000 nM | > 10000 nM |  |  | 
26 | CCCCCn1c(C)cc(=O)n(CC(=O)NC(C)(C)C)c1=O | > 10000 nM | 722 nM | >13 | 72% | 
27 | CCCCCn1c(=O)n(CC(=O)NCCCC)c(=O)c2c(Cl)cccc21 | > 10000 nM | 147 nM | >68 | 30% | 
28 | CCCCCn1c(C)c(Br)c(=O)n(CC(=O)NC(C)(C)C)c1=O | > 10000 nM | 48.7 nM | >205 | 74% | 2.24
29 | CCCn1c(=O)n(CC(=O)NC(C)(C)C)c(=O)c2cccc(C)c21 | > 10000 nM | 407 nM | >25 | 121% | 
30 | CCCCCn1c(C)cc(=O)n(CC(=O)NCCCC)c1=O | > 10000 nM | > 10000 nM |  |  | 
31 | C=CCCn1c(=O)n(CC(=O)NC(C)(C)C)c(=O)c2c(C)cccc21 | > 10000 nM | 46.8 nM | >214 | 103% | 
32 | Cc1cccc2c1c(=O)n(CC(=O)NC(C)(C)C)c(=O)n2CC1CC1 | > 10000 nM | 68.3 nM | >146 | 106% | 
33 | CCCCCn1c(=O)n(CC(=O)NC(C)(C)C)c(=O)c2c(C)cccc21 | > 10000 nM | 14 nM | >715 | 77% | 2.56
34 | CCCCCn1c(=O)n(CC(=O)NCC(C)C)c(=O)c2ccccc21 | > 10000 nM | 370 nM | >27 | 81% | 
35 | CCCn1c(=O)n(CC(=O)NC(C)(C)C)c(=O)c2c(C)cccc21 | > 10000 nM | 113 nM | >88 | 113% | 
36 | CCCCCn1c(C)c(C2CC2)c(=O)n(CC(=O)NC(C)(C)C)c1=O | > 10000 nM | 270 nM | >37 | 71% | 
37 | CCCCn1c(=O)n(CC(=O)NC(C)(C)C)c(=O)c2c(C)cccc21 | > 10000 nM | 23.5 nM | >425 | 98% | 
38 | CCCCCn1c(C)c(Cl)c(=O)n(CC(=O)NC(C)(C)C)c1=O | > 10000 nM | 227 nM | >44 | 65% | 
39 | CCCn1c(=O)n(CC(=O)NC(C)(C)C)c(=O)c2ccccc21 | > 10000 nM | 1420 nM | >7 | 75% | 
40 | CCCCn1c(=O)n(CC(=O)NC(C)(C)C)c(=O)c2cccc(C)c21 | > 10000 nM | 38.2 nM | >262 | 102% | 
